≈ marks a conversion by molar mass, not a printed value. Where “and” joins values, the source holds several entries; their conditions need not be identical. Equal entries are not always repeated. Bridge positions count the residues as written; N and C are the ends. Square brackets hold non-standard residues; d marks the D form. Peptide text beside a SMILES is read from it. ξ: configuration not given here. dPhe(3-F) = N[C@H](Cc1cccc(F)c1)C(=O)O; dPhe(4-F) = N[C@H](Cc1ccc(F)cc1)C(=O)O; d2Nal = N[C@H](Cc1ccc2ccccc2c1)C(=O)O; dPhe(2-F) = N[C@H](Cc1ccccc1F)C(=O)O; d(hPhe) = N[C@H](CCc1ccccc1)C(=O)O; Thr(3ξ) = CC(O)[C@H](N)C(=O)O
Tests used:
[1] = Solubility study before preparative HPLC; assay type: physicochemical; conditions: water-acetonitrile mixture 58:42; water-acetonitrile solution 58:42
Excerpt: The peptide must be dissolved in a water-acetonitrile mixture in order be injected into the preparative HPLC. A solubility study is first carried out on a small quantity. It allows the optimum percentage of acetonitrile and the maximum quantity of peptide to be established. The lowest possible percentage of acetonitrile with a very high concentration of peptide and a resultant clear solution constitute ideal conditions. By way of example, the solubility of the 4-para-fluorophenylalanine derivative (Example 13 hereafter) was established at 49 g l^−1 in a water-acetonitrile solution 58:42.

[2] = Self-assembly study: putting peptides in solution in water, macroscopic, ATR-FTIR, TEM and SAXS analysis; assay type: physicochemical; conditions: 3 to 15% by mass of peptide in water; form and diameter of the self-assembled structure, or soluble / insoluble
Excerpt: The procedure used comprises three stages: putting the peptides in solution and macroscopic analysis; spectroscopic and microscopic analyses of the structures formed and by small-angle X-ray scattering (SAXS) analyses.
The first stage of the characterization of the derivatives is the production of a range of concentrations from 3 to 15% by mass of peptide in water. Gelling of the solution indicates the presence of self-assembled structures which can be nanotubes but can also be fibres or other self-organised structures.
The object of this stage is to verify the presence of self-assembled structures, to characterize their self-assembly and to visualize them by microscopy.
Infrared spectroscopy makes it possible to obtain information on the method of stacking the peptides in the self-assemblies. The amide band spectrum, reflecting the absorption spectra of the carbonyl functions of the peptide backbone, gives information on the type of hydrogen bond in which these groups are involved (H bonds leading to the formation of the […], a helix or also a loop or random conformation) and consequently on the secondary and tertiary structure of the peptides in solution and self-assembled. The attenuated total reflection technique (ATR-FTIR) uses a crystal on which the solid or liquid sample is deposited. The infrared light is guided through this crystal at an angle which allows it to be reflected several times inside the crystal, which increases the sensitivity of the technique. Due to the performance of this device, it is then possible perform measurements on relatively dilute solutions. The beam penetrates a few microns into the sample deposited on the crystal, which means that only the molecules/structures which are deposited on the surface of the crystal are analyzed. Moreover, this technique is non-destructive.
The assembled structures are then visualized by transmission electron microscopy (TEM). This very powerful technique, allowing magnifications greater than 500,000 times, is one of the few techniques capable of visualizing structures on the nanometric scale. The sample is subjected to an electron beam. The visualization of the transmitted beam is produced either by a photoluminescent screen, or by a CCD camera. The sample in the microscope being under vacuum, it is samples dried after staining with uranyl salts in order to increase contrast which are observed.
The peptide in solution is firstly deposited on a copper grid covered with a film of carbon. After deposition of the materiel, the excess liquid is eliminated. In the same way, the solution of colorant, in our case uranyl acetate, is deposited on the grid, the excess is eliminated and the grid is dried in the open air. It can then be introduced into the microscope.
The samples, liquids or gels, are introduced into a capillary column and subjected to a monochromatic flow of X-rays. The intensity diffused is measured as a function of the scattering angle with respect to the incident angle.
The diffusion patterns thus obtained must be the subject of a correlation with a close theoretical model of the structures present in the sample. In the case where the peptides have self-assembled in the form of hollow nanotubes, the modelling of the experimental data with the theoretical diffusion produced by infinitely long hollow columns makes it possible to determine with precision the diameter of the columns and to estimate their wall thickness (Valery et al. in Biophysical journal, 2004, 86(4), 2484-2501 and Proc. Natl. Acad. Sci., 2003, 100(18) 10258-10262). For polydisperse, nanotubular, fibrilar, micellar or lamellar self-assemblies, it is the correlation of the spectroscopic, microscopic and XR scattering data which makes it possible to estimate a size range for the objects observed.

[3] = biological target: T1, somatostatin receptors sub-type 2 (Homo sapiens, UniProt P30874); test: Affinity for somatostatin receptors: inhibition of [125I-Tyr11]SRIF-14 binding to membranes of transfected CHO-K1 cells; conditions: competitive inhibition of [125I-Tyr11]SRIF-14 binding, 37° C.
T1 construct: expressed in transfected cells; membrane preparations
T1 sequence (P30874 whole entry): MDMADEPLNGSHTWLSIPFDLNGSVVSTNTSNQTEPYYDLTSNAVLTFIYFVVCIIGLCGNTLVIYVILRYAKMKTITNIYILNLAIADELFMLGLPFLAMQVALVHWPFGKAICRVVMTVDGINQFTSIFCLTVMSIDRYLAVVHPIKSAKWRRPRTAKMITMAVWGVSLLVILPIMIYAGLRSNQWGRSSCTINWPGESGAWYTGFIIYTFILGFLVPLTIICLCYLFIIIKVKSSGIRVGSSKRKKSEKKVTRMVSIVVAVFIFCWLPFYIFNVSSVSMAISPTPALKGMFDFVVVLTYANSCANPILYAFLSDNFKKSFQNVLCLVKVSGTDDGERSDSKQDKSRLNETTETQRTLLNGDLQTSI
Procedure: (§1) The affinity of the compounds of the invention for the somatostatin receptors is determined by measurement of the inhibition of the bond of [125I-Tyr11]SRIF-14 to membrane preparations of transfected CHO-K1 cells.
(§2) The CHO-K1 cells expressing in a stable fashion each of the sub-types of somatostatin receptors are collected with 0.5 mM of EDTA and centrifuged at 500 g for 5 minutes at 4° C. The pellet is re-suspended in phosphate buffer (PBS) and centrifuged at 500 g for 5 minutes at 4° C. The pellet is re-suspended in Tris 50 mM buffer at pH 7.4 and centrifuged at 500 g for 5 minutes at 4° C. The cells are lyzed by sonication and centrifuged at 39,000 g for 10 minutes. The pellet is re-suspended in Tris 50 mM buffer at pH 7.4, an aliquot is removed for assaying the proteins and the remainder is centrifuged at 50,000 g for 10 minutes. The membranes obtained in this last pellet are stored at −80° C.
(§3) Measurement of the competitive inhibition of the bond of [125I-Tyr11]SRIF-14 (Perkin Elmer) on each of the sub-types of somatostatin receptors is carried out in duplicate in 96-well polypropylene plates. The cell membranes (5 to 20 µg of proteins/well) are incubated with [125I-Tyr11]SRIF-14 (0.05 to 0.1 nM) for 50 to 90 minutes at 37° C. (conditions dependent on the sub-type of receptor) in a HEPES buffer medium 50 mM pH 7.4, comprising 0.2% bovine serum albumin (BSA), MgCl2 5 mM, Trasylol 200 KIU/mL, Bacitracin 0.02 mg/mL, phenylmethylsulphonyl fluoride 0.02 mg/mL.
(§4) The bound [125I-Tyr11]SRIF-14 is separated from the free [125I-Tyr11]SRIF-14 by filtration through GF/C glass fibre plates (Unifilter, Perkin Elmer) pre-impregnated with 0.1% polyethylenimine (P.E.I.), using a Filtermate 96 (Perkin Elmer). The filters are washed with Tris-HCl buffer 50 mM, pH 7.4 at 4° C. and the radioactivity present is determined using a counter (TopCount, Perkin Elmer).
(§5) The data are analyzed by computer-assisted non-linear regression using XLfit 4.2 (IDBS) software.

[4] = biological target: T2, somatostatin receptors sub-type 5 (Homo sapiens, UniProt P35346); test: as above; conditions: competitive inhibition of [125I-Tyr11]SRIF-14 binding, 37° C.
T2 construct: expressed in transfected cells; membrane preparations
T2 sequence (P35346 whole entry): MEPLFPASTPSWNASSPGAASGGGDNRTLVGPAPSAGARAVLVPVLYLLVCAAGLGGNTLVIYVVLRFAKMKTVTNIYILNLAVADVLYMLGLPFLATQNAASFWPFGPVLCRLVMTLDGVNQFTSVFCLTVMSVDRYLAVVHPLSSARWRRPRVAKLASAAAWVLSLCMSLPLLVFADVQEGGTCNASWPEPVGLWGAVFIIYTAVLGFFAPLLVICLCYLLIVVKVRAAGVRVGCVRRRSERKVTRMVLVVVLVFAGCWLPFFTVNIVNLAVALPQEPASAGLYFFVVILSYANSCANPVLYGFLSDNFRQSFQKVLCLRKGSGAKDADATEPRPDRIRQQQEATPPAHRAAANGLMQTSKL
Procedure: as §1, §2, §3, §4, §5

SMILES	solubility [1] [mg/mL]	Ki [3] [nM]	Ki [4] [nM]	Assembly [2]
CC(C)[C@@H]1NC(=O)[C@H](CCCCN)NC(=O)[C@@H](C(C)C)NC(=O)[C@H](Cc2ccc(O)cc2)NC(=O)[C@@H](NC(=O)[C@H](N)Cc2ccc3ccccc3c2)CSSC[C@@H](C(=O)N[C@H](C(N)=O)C(C)O)NC1=O (stereo partly drawn) [Example 5, H-D-2-Nal^1-cyclo(Cys^2Tyr^3-D-Val^4-Lys^5-Val^6Cys^7)-Thr^8-NH2.2 CH3COOH] (H-[d2Nal]CY[dV]KVC[Thr(3ξ)]-NH2; disulfide 2-7)	–	≤ 700	≤ 5000	soluble
CC(C)[C@@H]1NC(=O)[C@H](CCCCN)NC(=O)[C@@H](CCc2ccccc2)NC(=O)[C@H](Cc2ccc(O)cc2)NC(=O)[C@@H](NC(=O)[C@H](N)Cc2ccc3ccccc3c2)CSSC[C@@H](C(=O)N[C@H](C(N)=O)C(C)O)NC1=O (stereo partly drawn) [Example 11, H-D-2-Nal^1-cyclo(Cys^2-Tyr^3-D-Homophe^4-Lys^5-Val^6Cys^7)-Thr^8-NH2.2 CH3COOH] (H-[d2Nal]CY[d(hPhe)]KVC[Thr(3ξ)]-NH2; disulfide 2-7)	–	≤ 50	≤ 1000	soluble
CC(C)[C@@H]1NC(=O)[C@H](CCCCN)NC(=O)[C@@H](Cc2ccc(/N=N/c3ccccc3)cc2)NC(=O)[C@H](Cc2ccc(O)cc2)NC(=O)[C@@H](NC(=O)[C@H](N)Cc2ccc3ccccc3c2)CSSC[C@@H](C(=O)N[C@H](C(N)=O)[C@@H](C)O)NC1=O [Example 25, H-D-2-Nal^1-cyclo(Cys^2-Tyr^3-p-phenylazo-D-Phe^4-Lys^5-Val^6-Cys^7)-Thr^8-NH2.2 CH3COOH]	–	≤ 50	≤ 1000	10 nm monodisperse nanotube
CC(C)[C@@H]1NC(=O)[C@H](CCCCN)NC(=O)[C@@H](Cc2cccc(F)c2)NC(=O)[C@H](Cc2ccc(O)cc2)NC(=O)[C@@H](NC(=O)[C@H](N)Cc2ccc3ccccc3c2)CSSC[C@@H](C(=O)N[C@H](C(N)=O)C(C)O)NC1=O (stereo partly drawn) [Example 15, H-D-2-Nal^1-cyclo(Cys^2-Tyr^3-m-F-D-Phe^4-Lys^5-Val^6-Cys^7)-Thr^8-NH2.2 CH3COOH] (H-[d2Nal]CY[dPhe(3-F)]KVC[Thr(3ξ)]-NH2; disulfide 2-7)	–	≤ 5	≤ 100	monodisperse peptide nanotubes and 15.6 nm monodisperse nanotube

More lines, main results first:

solubility [1] [mg/mL]	Ki [3] [nM]	Ki [4] [nM]	SMILES	Assembly [2]
49 (≈ 45.6 mM)	≤ 5	≤ 1000	CC(C)[C@@H]1NC(=O)[C@H](CCCCN)NC(=O)[C@@H](Cc2ccc(F)cc2)NC(=O)[C@H](Cc2ccc(O)cc2)NC(=O)[C@@H](NC(=O)[C@H](N)Cc2ccc3ccccc3c2)CSSC[C@@H](C(=O)N[C@H](C(N)=O)C(C)O)NC1=O (stereo partly drawn) [Example 13, H-D-2-Nal^1-cyclo(Cys^2-Tyr^3-p-F-D-Phe^4-Lys^5-Val^6-Cys^7)-Thr^8-NH2.2 CH3COOH] (H-[d2Nal]CY[dPhe(4-F)]KVC[Thr(3ξ)]-NH2; disulfide 2-7)	monodisperse peptide nanotubes and 17 nm monodisperse nanotube
–	≤ 5	≤ 100	CC(C)[C@@H]1NC(=O)[C@H](CCCCN)NC(=O)[C@@H](CC2CCCCC2)NC(=O)[C@H](Cc2ccc(O)cc2)NC(=O)[C@@H](NC(=O)[C@H](N)Cc2ccc3ccccc3c2)CSSC[C@@H](C(=O)N[C@H](C(N)=O)[C@@H](C)O)NC1=O [Example 24, H-D-2-Nal^1-cyclo(Cys^2-Tyr^3-cyclohexyl-D-Ala^4-Lys^5-Val^6-Cys^7)-Thr^8-NH2.2 CH3COOH]	fibres
–	≤ 5	≤ 100	CC(C)[C@@H]1NC(=O)[C@H](CCCCN)NC(=O)[C@@H](Cc2csc3ccccc23)NC(=O)[C@H](Cc2ccc(O)cc2)NC(=O)[C@@H](NC(=O)[C@H](N)Cc2ccc3ccccc3c2)CSSC[C@@H](C(=O)N[C@H](C(N)=O)C(C)O)NC1=O (stereo partly drawn) [Example 1, H-D-2-Nal^1-cyclo(Cys^2-Tyr^3-β-(3-benzothienyl)-D-Ala^4-Lys^5-Val^6-Cys^7)-Thr^8-NH2.2 CH3COOH]	monodisperse peptide nanotubes and 20 nm monodisperse nanotube
–	≤ 5	≤ 1000	CC(C)[C@@H]1NC(=O)[C@H](CCCCN)NC(=O)[C@@H](Cc2ccc(O)cc2)NC(=O)[C@H](Cc2ccc(O)cc2)NC(=O)[C@@H](NC(=O)[C@H](N)Cc2ccc3ccccc3c2)CSSC[C@@H](C(=O)N[C@H](C(N)=O)C(C)O)NC1=O (stereo partly drawn) [Example 14, H-D-2-Nal^1-cyclo(Cys^2-Tyr^3-D-Tyr^4-Lys^5-Val^6-Cys^7)-Thr^8-NH2.2 CH3COOH] (H-[d2Nal]CY[dY]KVC[Thr(3ξ)]-NH2; disulfide 2-7)	monodisperse peptide nanotubes and 18 nm monodisperse nanotube
–	≤ 5	≤ 1000	CC(C)[C@@H]1NC(=O)[C@H](CCCCN)NC(=O)[C@@H](Cc2ccccc2F)NC(=O)[C@H](Cc2ccc(O)cc2)NC(=O)[C@@H](NC(=O)[C@H](N)Cc2ccc3ccccc3c2)CSSC[C@@H](C(=O)N[C@H](C(N)=O)C(C)O)NC1=O (stereo partly drawn) [Example 16, H-D-2-Nal^1-cyclo(Cys^2-Tyr^3-o-F-D-Phe^4-Lys^5-Val^6-Cys^7)-Thr^8-NH2.2 CH3COOH] (H-[d2Nal]CY[dPhe(2-F)]KVC[Thr(3ξ)]-NH2; disulfide 2-7)	monodisperse peptide nanotubes and 17 nm monodisperse nanotube

Source: patent publication US9382306B2, “Octapeptide compounds derived from somatostatin and the therapeutic use thereof” (IPSEN PHARMA S.A.S., priority 2008, dated 2016)
